Results from patent US8809333B2, “Imidazole, pyrazole, and triazole derivatives useful as antibacterial agents” (Pfizer Inc., priority 2011, dated 2014).
≈ marks a conversion by molar mass, not a printed value. Read-outs that look alike come from different tables or passages of the source.

What was measured:
[1] = target: T1, Pseudomonas aeruginosa LpxC enzyme (Pseudomonas aeruginosa, UniProt P47205); test: IC50 assay, LpxC enzyme from P. aeruginosa (BioTrove RapidFire mass spectrometry); format: biochemical
T1 construct: made in house; host or cells: E. coli
T1 sequence (P47205 1-303): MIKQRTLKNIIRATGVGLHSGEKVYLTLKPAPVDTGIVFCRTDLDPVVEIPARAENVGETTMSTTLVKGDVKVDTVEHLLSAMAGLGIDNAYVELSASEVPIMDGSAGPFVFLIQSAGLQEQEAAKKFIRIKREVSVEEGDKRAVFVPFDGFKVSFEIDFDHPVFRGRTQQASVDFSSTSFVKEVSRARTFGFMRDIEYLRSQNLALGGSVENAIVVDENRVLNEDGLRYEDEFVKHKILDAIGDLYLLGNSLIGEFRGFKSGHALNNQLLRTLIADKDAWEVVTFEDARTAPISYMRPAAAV
Summary of the method: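 P. aeruginosa LpxC reaction run 1 hour, stopped with 1 N HCl, and substrate-to-product conversion quantified by RapidFire mass spectrometry. IC50 calculated from percent conversion using a no-enzyme control.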

[2] = tested on: Acinetobacter baumannii/haemolyticus: Multidrug-resistant clinical isolate (AB-3167); test: MIC determination (CLSI), AB-3167; format: cell-based; conditions: read-out: AB-3167 (MIC)
Summary of the method: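 Broth dilution MIC per CLSI M7-A8, 2-fold concentration steps, overnight incubation, visual read of lowest concentration inhibiting growth versus drug-free control. Tested in duplicate; lower value reported if within 2-fold, otherwise repeated; QC organisms and reference drugs required within range.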

[3] = tested on: Escherichia coli EC-1: VOGEL, mouse virulent; test: MIC determination (CLSI), EC-1; format: cell-based; conditions: Escherichia coli, read-out: EC-1 (MIC)
Summary of the method: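 Broth dilution MIC per CLSI M7-A8, with 2-fold compound dilutions incubated overnight with a standard inoculum. MIC is the lowest concentration visibly inhibiting growth versus drug-free control; tested in duplicate, reporting the lower value when within 2-fold, with QC organisms and reference compounds required in range.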

[4] = tested on: Klebsiella pneumoniae: Ciprofloxacin-resistant isolate, expresses ESBL, clinical isolate (KP-3700); test: MIC determination (CLSI), KP-3700; format: cell-based; conditions: overnight incubation, lower of duplicate values
Summary of the method: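 Broth dilution MIC per CLSI M7-A8 against the ciprofloxacin-resistant, ESBL-expressing clinical isolate, 2-fold concentration steps, overnight incubation, visual read of lowest growth-inhibiting concentration. Tested in duplicate; lower value reported when within 2-fold; control organisms and reference compounds required within range.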

[5] = tested on: Pseudomonas aeruginosa UI-18: Wild-type (PA-7); test: MIC determination (CLSI), PA-7; format: cell-based; conditions: read-out: PA-7 (MIC)
Summary of the method: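 Broth dilution MIC per CLSI M7-A8, using 2-fold compound dilutions incubated overnight; MIC is the lowest concentration with no visible growth versus the drug-free control. Run in duplicate, lower value reported when within 2-fold. Control organisms and reference compounds were included for QC.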

[6] = P. aeruginosa LpxC enzyme 0.1 nM, 25° C., 1 hour, pH 8.0, read-out: PA: IC50
[7] = Acinetobacter baumannii/haemolyticus multidrug-resistant clinical isolate, overnight incubation, lower of duplicate values
[8] = Pseudomonas aeruginosa UI-18 wild-type, overnight incubation, lower of duplicate values

Compound | IC50 [1, 6] [nM] | MIC [2, 7] [µg/mL] | MIC [3] [µg/mL] | KP-3700 (MIC) [4] [µg/mL] | MIC [5, 8] [µg/mL] | IC50 [1] [nM] | MIC ([2]; Acinetobacter baumannii) [µg/mL] | MIC ([5]; Pseudomonas aeruginosa) [µg/mL]
Cc1cc(-c2cnn(CCC(C)(C(=O)NO)S(C)(=O)=O)c2)ccc1O (centres unmarked) [Example 50, N-hydroxy-4-[4-(4-hydroxy-3-methylphenyl)-1H-pyrazol-1-yl]-2-methyl-2-(methylsulfonyl)butanamide] | 44.4 | > 64 | > 64 | >64.0 | > 64 | – | – | –
Cc1nccc(-c2ccc(-c3cnn(CCC(C)(C(=O)NO)S(C)(=O)=O)c3)cc2)n1 (centres unmarked) [Example 92, N-hydroxy-2-methyl-4-{4-[4-(2-methylpyrimidin-4-yl)phenyl]-1H-pyrazol-1-yl}-2-(methylsulfonyl)butanamide] | 5.49 | > 64 | 32 (≈ 74.5 µM) | >64.0 | 32 (≈ 74.5 µM) | – | – | –
CC(CCn1cc(-c2ccccc2F)cn1)(C(=O)NO)S(C)(=O)=O (centres unmarked) [Example 45, 4-[4-(2-fluorophenyl)-1H-pyrazol-1-yl]-N-hydroxy-2-methyl-2-(methylsulfonyl)butanamide] | 2.5 | > 64 | 16 (≈ 45 µM) | 64 | 2 (≈ 5.63 µM) | – | – | –
CC(CCn1cc(-c2ccccc2Br)nn1)(C(=O)NO)S(C)(=O)=O (centres unmarked) [Example 38, 4-[4-(2-bromophenyl)-1H-1,2,3-triazol-1-yl]-N-hydroxy-2-methyl-2-(methylsulfonyl)butanamide] | 18.9 | > 64 | 16 (≈ 38.3 µM) | >64.0 | 32 (≈ 76.7 µM) | – | – | –
CC(C)(C)c1cccc(OCc2cn(CCC(C)(C(=O)NO)S(C)(=O)=O)nn2)c1 (centres unmarked) [Example 35, 4-{4-[(3-t-butylphenoxy)methyl]-1H-1,2,3-triazol-1-yl}-N-hydroxy-2-methyl-2-(methylsulfonyl)butanamide] | 24 | > 64 | > 64 | >64.0 | > 64 | – | – | –
C[C@@](CCn1cc(-c2cccc(Cl)c2Cl)nn1)(C(=O)NO)S(C)(=O)=O [Example 19, (2R)-4-[4-(2,3-dichlorophenyl)-1H-1,2,3-triazol-1-yl]-N-hydroxy-2-methyl-2-(methylsulfonyl)butanamide] | – | – | 8 (≈ 19.6 µM) | 16 | – | 1.95 | > 64 | 4 (≈ 9.82 µM)
CC(C)c1ccccc1SCc1cn(CCC(C)(C(=O)NO)S(C)(=O)=O)nn1 (centres unmarked) [Example 31, N-hydroxy-2-methyl-2-(methylsulfonyl)-4-[4-({[2-(propan-2-yl)phenyl]sulfanyl}methyl)-1H-1,2,3-triazol-1-yl]butanamide] | 303 | > 64 | > 64 | >64.0 | > 64 | – | – | –
CC(CCn1cc(-c2ccc3cnc(N)cc3c2)cn1)(C(=O)NO)S(C)(=O)=O (centres unmarked) [Example 69, 4-[4-(3-aminoisoquinolin-6-yl)-1H-pyrazol-1-yl]-N-hydroxy-2-methyl-2-(methylsulfonyl)butanamide] | 2.57 | > 64 | > 64 | >64.0 | > 64 | – | – | –
C[C@@](CCn1cc(-c2cnccn2)cn1)(C(=O)NO)S(C)(=O)=O [Example 8, (2R)—N-hydroxy-2-methyl-2-(methylsulfonyl)-4-[4-(pyrazin-2-yl)-1H-pyrazol-1-yl]butanamide] | > 100 | > 64 | > 64 | >64.0 | > 64 | – | – | –
Cc1ccccc1-c1cnn(CCC(C)(C(=O)NO)S(C)(=O)=O)c1 (centres unmarked) [Example 43, N-hydroxy-2-methyl-4-[4-(2-methylphenyl)-1H-pyrazol-1-yl]-2-(methylsulfonyl)butanamide] | 11.3 | > 64 | 32 (≈ 91.1 µM) | >64.0 | 16 (≈ 45.5 µM) | – | – | –
